Data as given in patent US11304965B2, “Flavonoid compositions and related methods” (INSTITUTO DE INVESTIGACIONES CIENTIFICAS Y SERVICIOS DE …, priority 2017, dated 2022).

Columns and labels:
Format in all cases: cell-based
human AT1 receptor = target: T1, human AT1 receptor (Homo sapiens, UniProt P30556); test: Aequorin bioluminescence intracellular calcium assay, CHO-AEQ-AT1 cells (inhibition of angiotensin II); conditions: CHO-AEQ cells expressing AT1; 100 nM angiotensin II; samples 100 μg/ml; compared with losartan; FIG. 21
T1 construct: pcDNA3.1+ plasmid DNA into which had been inserted the coding region for human AT1, AT2, or ETB receptor; expressed in transfected cells; host or cells: CHO-AEQ (Chinese hamster ovary cells stably expressing aequorin), transient transfection with Fugene HD
T1 sequence (P30556 1-359): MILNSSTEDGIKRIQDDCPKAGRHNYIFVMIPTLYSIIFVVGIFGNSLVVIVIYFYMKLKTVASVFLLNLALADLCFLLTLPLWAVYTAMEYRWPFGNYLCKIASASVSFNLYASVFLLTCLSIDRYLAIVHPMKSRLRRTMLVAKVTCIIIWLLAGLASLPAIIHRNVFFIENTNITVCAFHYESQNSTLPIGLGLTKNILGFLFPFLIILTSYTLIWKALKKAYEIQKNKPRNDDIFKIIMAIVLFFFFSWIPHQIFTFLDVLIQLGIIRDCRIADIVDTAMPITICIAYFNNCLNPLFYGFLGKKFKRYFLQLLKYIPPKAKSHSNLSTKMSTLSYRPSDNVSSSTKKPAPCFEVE
Protocol: (§1) To investigate the vasculoprotective, neuroprotective, and/or antihypertensive properties of Cecropia extracts, Chinese hamster ovary cells that had been stably transfected with aequorin (CHO-AEQ cells) were transiently transfected with various G-protein coupled receptors.
(§2) More particularly, CHO-AEQ cells were cultured in Dulbecco's Modified Eagle's Medium (DMEM) containing 10% fetal bovine serum as previously described (Vanderheyden et al., 126 Br J Pharmacol 1057-1065 (1999)). At 75% confluency, these cells were transiently transfected with pcDNA3.1+ plasmid DNA into which had been inserted the coding region for human AT1, AT2, or ETB receptor. The transient transfection was performed with Fugene HD® following the manufacturers' instructions (2 μg DNA to 7 μl Fugene HD® in Opti-MEM® medium. After transfection, the cells were cultured for an additional day, after which they were harvested and loaded with coelenterazine-h.
(§3) Intracellular calcium can be detected based on the interaction of calcium ions with the calcium binding bioluminescent complex aequorin. Upon calcium binding, aequorin oxidizes coelenterazine-h into coelenteramide with production of CO2 and emission of light (466 nm) (Le Poul et al., 7 J Biomol Screen 57-65 (2002). The CHO-AEQ cells that had been transiently transfected with human AT1, human AT2 or human ETB receptors were used in a bioluminescence assay to evaluate whether—and to what extent—material isolated from Cecropia obtusifolia could perturb G-protein coupled receptor(s).
(§4) Confluent CHO-AEQ cells that were grown and transfected in 75 cm^2 culture flasks were harvested by a brief treatment with a trypsin/EDTA solution, centrifuged, and resuspended in DMEM-F12 cell culture medium containing 0.1% BSA and denoted as assay buffer, at a cell density of 2.5×10^6 cells/ml. Subsequently, coelenterazine-h was added to the cell suspension to a final concentration of 5 μM. Cells were then incubated between 14 h and 18 h at room temperature in the dark under gentle shaking. After this loading step, 15 ml of assay buffer was added to the cells and then centrifuged for 7 min at 1100 rpm in a swinging bucket centrifuge. The resulting cell pellets were gently resuspended in assay buffer containing 1 μM coelenterazine-h at a cell density of 5×10^5 cells/ml. After a further incubation of 1.5 h at room temperature, the cell suspension was distributed at 100 μl/well in white Cellstar 96-well plates.
To assess the activity of the compounds derived from Cecropia obtusifolia extracts, lyophilized crude extract (and compounds that had been identified in the extract) were dissolved in DMSO at 1 mg/ml, and then further diluted in assay buffer to 100 μg/ml (final concentration) (Caballero-George et al., 4 Curr. Trends Biotechnol Pharm 881-899 (2010)). A […] was then added to each well containing the transiently transfected cells. […]
(§5) Measurements were initiated by injecting 50 μl solution/well, and the bioluminescence was recorded every 200 ms for 120 cycles. To account for slight variations in cell number, a final concentration of 10 μM ATP was added by a second injector to the cells (50 μl/well) and the resulting response was measured.
(§6) The effects were quantified by calculation of the area under the curves by integration of the obtained transient responses using GraphPad Prism 5™. The activation of the AT1, AT2, or ETB receptors was expressed as a fractional response. […]

human AT2 receptor = target: T2, human AT2 receptor (Homo sapiens, UniProt P50052); test: Aequorin bioluminescence intracellular calcium assay, CHO-AEQ-AT2 cells; conditions: CHO-AEQ cells expressing AT2; samples 100 μg/ml; compared with angiotensin II; FIG. 19
T2 construct: pcDNA3.1+ plasmid DNA into which had been inserted the coding region for human AT1, AT2, or ETB receptor; expressed in transfected cells; host or cells: CHO-AEQ (Chinese hamster ovary cells stably expressing aequorin), transient transfection with Fugene HD
T2 sequence (P50052 1-363): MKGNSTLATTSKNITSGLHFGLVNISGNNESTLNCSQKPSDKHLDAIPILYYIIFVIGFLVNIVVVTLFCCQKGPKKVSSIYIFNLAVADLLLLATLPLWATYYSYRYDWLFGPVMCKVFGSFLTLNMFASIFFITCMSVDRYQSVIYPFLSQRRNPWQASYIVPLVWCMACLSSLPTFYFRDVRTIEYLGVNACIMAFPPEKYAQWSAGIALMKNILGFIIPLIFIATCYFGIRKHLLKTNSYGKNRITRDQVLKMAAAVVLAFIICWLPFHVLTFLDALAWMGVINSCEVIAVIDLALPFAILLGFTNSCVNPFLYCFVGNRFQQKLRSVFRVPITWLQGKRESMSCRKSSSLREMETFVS
Protocol: as §1, §2, §3, §4
To assess the activity of the compounds derived from Cecropia obtusifolia extracts, lyophilized crude extract (and compounds that had been identified in the extract) were dissolved in DMSO at 1 mg/ml, and then further diluted in assay buffer to 100 μg/ml (final concentration) (Caballero-George et al., 4 Curr. Trends Biotechnol Pharm 881-899 (2010)). A […] was then added to each well containing the transiently transfected cells. For comparison, control peptides were diluted in assay buffer to a final concentration of 0.1 μM angiotensin II or 10 nM endothelin-1. These control peptides are known to cause a transient rise in cytosolic calcium. The agonist solutions were loaded in the cell injector of a Victor spectrophotometer, and a 96-well plate was inserted.
as §5
as §6, with “response. This is obtained by dividing the agonist response by the sum of the agonist and ATP response for each well (i.e., agonist response/(ATP+agonist response)).” for “response.”

human ETB receptor = target: T3, human ETB receptor (Homo sapiens, UniProt P24530); test: Aequorin bioluminescence intracellular calcium assay, CHO-AEQ-ETB cells; conditions: CHO-AEQ cells expressing ETB; samples 100 μg/ml; compared with 100 nM endothelin 1; FIG. 20
T3 construct: pcDNA3.1+ plasmid DNA into which had been inserted the coding region for human AT1, AT2, or ETB receptor; expressed in transfected cells; host or cells: CHO-AEQ (Chinese hamster ovary cells stably expressing aequorin), transient transfection with Fugene HD
T3 sequence (P24530 27-442): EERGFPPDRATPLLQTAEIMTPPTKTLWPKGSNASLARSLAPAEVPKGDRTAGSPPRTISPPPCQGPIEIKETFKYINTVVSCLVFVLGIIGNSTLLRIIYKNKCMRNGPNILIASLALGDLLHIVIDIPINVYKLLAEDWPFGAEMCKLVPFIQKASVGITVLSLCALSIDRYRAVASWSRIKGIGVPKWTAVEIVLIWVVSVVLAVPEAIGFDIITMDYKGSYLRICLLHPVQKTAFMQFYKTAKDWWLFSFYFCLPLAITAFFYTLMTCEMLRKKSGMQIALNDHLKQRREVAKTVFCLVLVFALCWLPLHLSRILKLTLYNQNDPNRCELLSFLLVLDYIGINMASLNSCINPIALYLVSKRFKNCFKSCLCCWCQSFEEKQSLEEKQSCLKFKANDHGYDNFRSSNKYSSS
Protocol: as §1
More particularly, CHO-AEQ cells were cultured in Dulbecco's Modified Eagle's Medium (DMEM) containing 10% fetal bovine serum as previously described (Vanderheyden et al., 126 Br J Pharmacol 1057-1065 (1999)). At 75% confluency, these cells were transiently transfected with pcDNA3.1+ plasmid DNA into which had been inserted the coding region for human AT1, AT2, or ETB receptor. […]
Intracellular calcium can be detected based on the interaction of calcium ions with the calcium binding bioluminescent complex aequorin. […]
as §5, §6

Molecule: O=c1cc(-c2ccc(O)cc2)oc2cc(O)c(C3OC(CO)C(O)C(O)C3OC3OCC(O)C(O)C3O)c(O)c12 (stereo not drawn) [Compound P8, isovitexin-2″-O-xyloside]
- inhibition of the agonistic effect of angiotensin II on the AT1 receptor (human AT1 receptor): less than half of the effect of Fraction 3-4
- activation of the AT2 receptor (cytoplasmic calcium release) (human AT2 receptor): approximately half of the activity of the extract

Molecule: isovitexin-O-xyloside [Compound P6]
- cytoplasmic calcium release after binding to the ETB receptors (human ETB receptor): the most active sample tested
- activation of the AT2 receptor (cytoplasmic calcium release) (human AT2 receptor): approximately half of the activity of the extract

Molecule: O=C(/C=C/c1ccc(O)c(O)c1)O[C@@H]1C[C@](O)(C(=O)O)C[C@@H](O)[C@H]1O [Compound P2, chlorogenic acid]
- inhibition of the agonistic effect of angiotensin II on the AT1 receptor (human AT1 receptor): less than half of the effect of Fraction 3-4
- activation of the AT2 receptor (cytoplasmic calcium release) (human AT2 receptor): approximately half of the activity of the extract

Molecule: O=c1cc(-c2ccc(O)c(O)c2)oc2cc(O)c(C3OC(CO)C(O)C(O)C3OC3OCC(O)C(O)C3O)c(O)c12 (stereo not drawn) [Compound P4, isoorientin-2″-O-xyloside]
- inhibition of the agonistic effect of angiotensin II on the AT1 receptor (human AT1 receptor): less than half of the effect of Fraction 3-4
- activation of the AT2 receptor (cytoplasmic calcium release) (human AT2 receptor): approximately half of the activity of the extract

Molecule: O=c1cc(-c2ccc(O)cc2)oc2cc(O)c(C3OC(CO)C(O)C(O)C3OC3OC(CO)C(O)C(O)C3O)c(O)c12 (stereo not drawn) [Compound P7, isovitexin-2″-O-glucoside]
- inhibition of the agonistic effect of angiotensin II on the AT1 receptor (human AT1 receptor): less than half of the effect of Fraction 3-4
- activation of the AT2 receptor (cytoplasmic calcium release) (human AT2 receptor): approximately half of the activity of the extract

Molecule: CC1OC(OC2C(c3c(O)cc4oc(-c5ccc(O)cc5)cc(=O)c4c3O)OC(CO)C(O)C2O)C(O)C(O)C1O (stereo not drawn) [Compound P9, isovitexin-2″-O-rhamnoside]
- inhibition of the agonistic effect of angiotensin II on the AT1 receptor (human AT1 receptor): less than half of the effect of Fraction 3-4
- activation of the AT2 receptor (cytoplasmic calcium release) (human AT2 receptor): approximately half of the activity of the extract
